# Several values for one entry are separate records, joined by “and”; a condition that tells them apart may be missing. Identical values can stand only once.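 Five compound concentrations were applied to cells in 96-well plates for 48 hours; endpoints were derived by simple linear interpolation of the resulting dose-response curve. GI50: concentration for 50% inhibition of growth. Definition used: TGI = concentration required for complete inhibition of growth.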
# Test system: SF-295 CNS
# Assay: inhibition of tumour cell growth, NCI panel, 48 h
SMILES,GI50,TGI
C[C@]12CCc3sc(NCCc4ccccc4)nc3C1=CC[C@@H]1[C@@H]2CC[C@]2(C)C(=O)CC[C@@H]12,18.9 µM,> 100 µM
COc1cccc(C2=C(c3c(C)n(C)c4ccccc34)C(=O)NC2=O)c1,> 25 µM,> 25 µM
CCN(Cc1ccc(F)cc1)c1ccc(CO)c(F)c1,5.7 µM,31.7 µM
O=C(Cn1c(=O)c(-c2ccccc2)nc2ccccc21)Nc1ccc(F)cc1,> 100 µM,> 100 µM
CN(C)CCNC(=O)c1cc([N+](=O)[O-])cc2c1Oc1ccccc1O2,–,> 100 µM
COc1cccc2c1C(=O)c1c(O)c3c(c(O)c1C2=O)CC(O)(C(O)CO)CC3OC1CC(N2CCOCC2)C(O)C(C)O1 (stereo not given),0.0243 µM,0.0718 µM and 0.106 µM
O=C1C(N2CC2)=C(N2CC2)C(=O)C(N2CC2)=C1N1CC1,< 0.0211 µM,1 µM
O=C(O)C1OC1(c1cccc(Cl)c1)c1ccccc1Cl (stereo not given),–,76.5 µM
CCCCC[C@H]1C/C=C2/C(=O)C=C[C@@H]2C/C=C\CCCC(=O)O[C@@H](CCCCC)C/C=C2/C(=O)C=C[C@@H]2C/C=C\CCCC(=O)O1,0.506 µM,1.29 µM
O=C(Nc1cccc(-n2cc(-c3ccncc3)c(-c3cc(O)cc(Cl)c3)n2)c1)Nc1ccc(Cl)c(C(F)(F)F)c1,2.05 µM,4.95 µM
COC1/C=C/C(C)C(C(C)C(OC)C(C)CCC(=O)C(C)C(C/C=C/N(C)C=O)OC)OC(=O)/C=C/C=C(\C)CC(OC)CC2=CC(=O)O[C@H](C2)C(C)C(OC)CC(OC)/C=C/C(C)C(OC)C1 (stereo not given in full),0.0277 µM,0.159 µM and 0.0165 µM
CNCCCn1c2c(c3ccc([N+](=O)[O-])cc3c1=O)C(=O)c1cc(OC)cnc1-2,0.0319 µM,0.193 µM
C#CC1(O)C(COP(=O)(O)OC(COCCCCCCCCCCCCCCCCCC)COP(=O)(O)OCC2OC(n3cc(F)c(=O)[nH]c3=O)CC2O)OC(n2ccc(N)nc2=O)C1O (stereo not given),< 0.021 µM and 0.0441 µM,–
COc1cc2oc3cc(=O)cc4oc(-c5ccccc5)cc(c2c2c1CCC(c1ccccc1)O2)c43 (stereo not given),–,54.9 µM
c1cc2n(n1)CCN2,–,4350 µM
COc1cc(Nc2c(C#N)cnc3cc(OCCCN4CCN(C)CC4)c(OC)cc23)c(Cl)cc1Cl,7.55 µM,21 µM
O=CN/C=C/c1cccc(O)c1,–,> 63.1 µM
Nc1ccc2c(SCc3ccc([N+](=O)[O-])cc3)c3ccccc3nc2c1,–,36.8 µM
COC1=CC(c2ccc[nH]2)=N/C1=C\c1[nH]c(C)c(C(=O)CCCCC(=O)NC(C)(C)C)c1C,2.17 µM,6.66 µM
O=c1ccn(C2CC(O)C(CO)O2)c(=O)[nH]1 (stereo not given),> 5000 µM,> 5000 µM
O=C(N/C(=C/c1ccc(Cl)cc1Cl)c1nc2ccccc2s1)c1ccccc1,–,26.5 µM
CCOC(=O)c1cc2c(n1Cc1cccc(OC)c1)-c1oncc1CCC2,0.616 µM,> 100 µM
COc1c(O)cc2oc(-c3ccc(O)cc3)cc(=O)c2c1O,–,> 100 µM
COc1cccc(-c2nn(-c3ccccc3)cc2-c2ccnc(NCCCNC(=O)Nc3ccc(Cl)c(Cl)c3)c2)c1,2.38 µM,6.43 µM
c1csc(-c2cn3nc(-c4c[nH]c5ccccc45)sc3n2)c1,1.74 µM,6.44 µM
COc1cc2ccccc2oc1=O,–,> 100 µM
N#CCCN(CCCN(CCCN(C(=O)Nc1ccccc1)c1ccccc1)C(=O)Nc1ccccc1)C(=O)Nc1ccccc1,> 100 µM,> 100 µM
COc1ccc(-c2nc(-c3ccccc3)c(-c3ccccc3)[nH]2)cc1OC1CCCC1,49.8 µM,> 100 µM

# Test system: NCI-H23 lung
# Assay: inhibition of tumour cell growth, NCI panel, 48 h
SMILES,GI50,TGI
C[C@]12CCc3sc(NCCc4ccccc4)nc3C1=CC[C@@H]1[C@@H]2CC[C@]2(C)C(=O)CC[C@@H]12,5.03 µM,> 100 µM
COc1cccc(C2=C(c3c(C)n(C)c4ccccc34)C(=O)NC2=O)c1,> 25 µM,> 25 µM
CCN(Cc1ccc(F)cc1)c1ccc(CO)c(F)c1,17.5 µM,> 94.6 µM
O=C(Cn1c(=O)c(-c2ccccc2)nc2ccccc21)Nc1ccc(F)cc1,> 100 µM,> 100 µM
CN(C)CCNC(=O)c1cc([N+](=O)[O-])cc2c1Oc1ccccc1O2,–,> 100 µM

# Source: PubChem BioAssay (NCI)
